Experimental data published in US9758538B2, “Pyrimidine derivatives” (PFIZER INC., priority 2015, dated 2017).

Target: truncated PI3Kα (p110α/iSH2 p85α), PI3KA_Act (Homo sapiens (Human), UniProt P42336)
Experiment: PI3Kα biochemical kinase assay, fluorescence polarization format (PI3KA_Act)
Details: 0.5 nM p110α/iSH2 p85, 1 mM ATP, 30 μM PIP2, 15-min preincubation; Morrison equation fit; read-out: PI3KA_Act Ki
Procedure: Enzyme Production for Biochemical Assay: p110α-iSH2 p85α Complex (Full Length p110α and p85α iSH2)(“PI3KA Act”)
Gene encoding p110α subunit was subcloned into polyhedrine promoter while gene encoding p85α niSH2 domains was subcloned into p10 promoter. […] Recombinant baculovirus was generated using Bac-to-Bac protocol (Life Technologies, Carlsbad, Calif.). Large scale expression was conducted in Sf21 (Life Technologies, Carlsbad, Calif.) cells at a multiplicity of infection (“MOI”)=1 for 48 hours. Cells were lyzed in 50 mM Tris pH 8.0, 250 mM NaCl, 5% glycerol, 0.25 mM TCEP, and 20 mM imidazole. The p110α-niSH2 p85α complex was purified from clarified supernatant using Immobilized Metalo Affinity Chromatography (“IMAC”). The protein was eluted from the column using 50 mM Tris pH 8.0, 200 mM NaCl, 0.25 mM TCEP, and 200 mM imidazole. Following elution p110α-niSH2 p85α complex was dialyzed against 4 liters of 50 mM Tris pH 8.0, 200 mM NaCl, 0.25 mM TCEP, and 40 mM imidazole in the presence of PreScission Protease (1:70 molar ratio of Protease to Protein) and TEV protease (1:40 molar ratio protease to protein) for 16 hours at 4° C. The protein was further purified using reverse IMAC to remove cleaved histidine tag and contaminants captured during initial IMAC purification. The mixture of p110α-iSH2 p85α complex and cleaved nSH2 was recovered in reverse IMAC 40 mM imidazole flow through and 60 mM imidazole wash fractions. Those fractions were pulled together and loaded on Superdex 200 26/60 SEC column equilibrated in 25 mM Tris, pH 8.0, 100 mM NaCl, 2% glycerol, and 2 mM TCEP.
The enzymatic reactions were conducted in 50 μL volumes in 96-well plates. […] The reactions were incubated for 30 min at room temperature, stopped with EDTA pH 8 (10 mM final concentration). […] The plate was shaken for 30 minutes and fluorescence polarization values were measured on an LJL Analyst HT plate reader (Molecular Devices, Sunnyvale, Calif.).

Sequence of truncated PI3Kα (p110α/iSH2 p85α), PI3KA_Act (P42336 whole entry, the tested form may be a part): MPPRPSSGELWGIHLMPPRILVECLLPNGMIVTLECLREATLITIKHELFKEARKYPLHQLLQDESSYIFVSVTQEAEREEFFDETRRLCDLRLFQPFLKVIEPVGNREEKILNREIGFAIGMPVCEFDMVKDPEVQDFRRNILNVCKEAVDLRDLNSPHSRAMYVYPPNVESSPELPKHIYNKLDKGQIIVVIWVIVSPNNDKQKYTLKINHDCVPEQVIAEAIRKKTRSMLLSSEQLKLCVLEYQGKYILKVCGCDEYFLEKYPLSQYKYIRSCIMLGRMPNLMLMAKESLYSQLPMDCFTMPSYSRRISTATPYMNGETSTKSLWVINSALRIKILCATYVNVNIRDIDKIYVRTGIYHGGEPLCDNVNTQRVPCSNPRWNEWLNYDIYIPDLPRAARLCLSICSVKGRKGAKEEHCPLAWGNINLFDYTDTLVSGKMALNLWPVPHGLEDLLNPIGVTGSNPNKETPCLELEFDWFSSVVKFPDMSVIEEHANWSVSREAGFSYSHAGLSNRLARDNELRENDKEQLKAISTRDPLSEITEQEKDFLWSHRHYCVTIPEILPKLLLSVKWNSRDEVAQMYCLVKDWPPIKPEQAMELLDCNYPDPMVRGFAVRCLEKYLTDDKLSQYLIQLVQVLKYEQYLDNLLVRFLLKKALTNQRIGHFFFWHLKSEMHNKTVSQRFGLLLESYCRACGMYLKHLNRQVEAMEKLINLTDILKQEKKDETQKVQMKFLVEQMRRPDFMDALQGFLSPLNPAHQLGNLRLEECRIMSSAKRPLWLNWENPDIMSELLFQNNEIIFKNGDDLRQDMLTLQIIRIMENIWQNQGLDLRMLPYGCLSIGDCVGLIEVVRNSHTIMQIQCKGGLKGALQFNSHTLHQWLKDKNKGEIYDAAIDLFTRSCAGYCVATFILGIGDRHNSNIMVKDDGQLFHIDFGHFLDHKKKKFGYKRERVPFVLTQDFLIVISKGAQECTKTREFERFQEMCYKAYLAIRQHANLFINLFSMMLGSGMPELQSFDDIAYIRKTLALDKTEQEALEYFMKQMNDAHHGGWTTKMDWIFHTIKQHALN

Ki | Compound
0.03 nM | COC(=O)N1CCCC(CO)(Nc2cc(-c3cnc(N)nc3)nc(N3CCOCC3)n2)C1 (racemic) [Example 4, methyl 3-{[2′-amino-2-(morpholin-4-yl)-4,5′-bipyrimidin-6-yl]amino}-3-(hydroxymethyl)piperidine-1-carboxylate]
0.492 nM | CC(C)(C)OC(=O)N1CCC(CO)(Oc2cc(-c3cnc(N)nc3)nc(N3CCOCC3)n2)C1 (single isomer, unassigned) [Example 9, tert-butyl 3-{[2′-amino-2-(morpholin-4-yl)-4,5′-bipyrimidin-6-yl]oxy}-3-(hydroxymethyl)pyrrolidine-1-carboxylate]
< 0.018 nM | COC(=O)N1CCC[C@](CO)(Nc2cc(-c3cnc(N)nc3)nc(N3CCOCC3)n2)C1 [Example 5, methyl (3S)-3-{[2′-amino-2-(morpholin-4-yl)-4,5′-bipyrimidin-6-yl]amino}-3-(hydroxymethyl)piperidine-1-carboxylate]
0.881 nM | COC(=O)N1CCC[C@@](CO)(Nc2cc(-c3cnc(N)nc3)nc(N3CCOCC3)n2)C1 [Example 6, methyl (3R)-3-{[2′-amino-2-(morpholin-4-yl)-4,5′-bipyrimidin-6-yl]amino}-3-(hydroxymethyl)piperidine-1-carboxylate]
1.62 nM | CC(O)[C@]1(Nc2cc(-c3cnc(N)nc3)nc(N3CCOCC3)n2)CCN(C(=O)OC(C)(C)C)C1 (stereo partly drawn) [Example 10, tert-butyl (3S)-3-{[2′-amino-2-(morpholin-4-yl)-4,5′-bipyrimidin-6-yl]amino}-3-(1-hydroxyethyl)pyrrolidine-1-carboxylate]
0.103 nM | COC(=O)N1CC[C@](CO)(Nc2nc(-c3cnc(N)nc3)nc(N3CCOCC3)n2)C1 [Example 11, methyl (3S)-3-{[4-(2-aminopyrimidin-5-yl)-6-(morpholin-4-yl)-1,3,5-triazin-2-yl]amino}-3-(hydroxymethyl)pyrrolidine-1-carboxylate]
1.29 nM | C[C@@]1(Nc2cc(-c3cnc(N)nc3)nc(N3CCOCC3)n2)CCN(S(C)(=O)=O)C1 [Example 12, N˜6˜-[(3R)-3-methyl-1-(methylsulfonyl)pyrrolidin-3-yl]-2-(morpholin-4-yl)-4,5′-bipyrimidine-2′,6-diamine]
0.201 nM | CCC1(Nc2cc(-c3cnc(N)nc3)nc(N3CCOCC3)n2)CCN(C(=O)OC(C)(C)C)C1 (stereo not drawn) [Example 28, tert-butyl 3-{[2′-amino-2-(morpholin-4-yl)-4,5′-bipyrimidin-6-yl]amino}-3-ethylpyrrolidine-1-carboxylate]
5.88 nM | Nc1ncc(-c2cc(N[C@@]3(CO)CCNC3)nc(N3CCOCC3)n2)cn1 [Example 29, [(3S)-3-{[2′-amino-2-(morpholin-4-yl)-4,5′-bipyrimidin-6-yl]amino}pyrrolidin-3-yl]methanol]
2.42 nM | Nc1ncc(-c2cc(N[C@]3(CO)CCNC3)nc(N3CCOCC3)n2)cn1 [Example 30, [(3R)-3-{[2′-amino-2-(morpholin-4-yl)-4,5′-bipyrimidin-6-yl]amino}pyrrolidin-3-yl]methanol]
2.13 nM | CC(=O)N1CC[C@@](CO)(Nc2cc(-c3cnc(N)nc3)nc(N3CCOCC3)n2)C1 [Example 31, 1-[(3R)-3-{[2′-amino-2-(morpholin-4-yl)-4,5′-bipyrimidin-6-yl]amino}-3-(hydroxymethyl)pyrrolidin-1-yl]ethanone]
0.771 nM | CC(=O)N1CC[C@](CO)(Nc2cc(-c3cnc(N)nc3)nc(N3CCOCC3)n2)C1 [Example 32, 1-[(3S)-3-{[2′-amino-2-(morpholin-4-yl)-4,5′-bipyrimidin-6-yl]amino}-3-(hydroxymethyl)pyrrolidin-1-yl]ethanone]
0.725 nM | CC[C@@]1(Nc2cc(-c3cnc(N)nc3)nc(N3CCOCC3)n2)CCN(C(=O)OC(C)(C)C)C1 [Example 37, tert-butyl (3R)-3-{[2′-amino-2-(morpholin-4-yl)-4,5′-bipyrimidin-6-yl]amino}-3-ethylpyrrolidine-1-carboxylate]

The remaining lines, values behind:

Compound | Ki
CC(C)(C)OC(=O)N1CCC(CO)(Oc2cc(-c3cnc(N)nc3)nc(N3CCOCC3)n2)C1 (racemic) [Example 7, tert-butyl 3-{[2′-amino-2-(morpholin-4-yl)-4,5′-bipyrimidin-6-yl]oxy}-3-(hydroxymethyl)pyrrolidine-1-carboxylate] | 0.058 nM
CC(C)(C)OC(=O)N1CCC(CO)(Oc2cc(-c3cnc(N)nc3)nc(N3CCOCC3)n2)C1 (single isomer, unassigned) [Example 8, tert-butyl 3-{[2′-amino-2-(morpholin-4-yl)-4,5′-bipyrimidin-6-yl]oxy}-3-(hydroxymethyl)pyrrolidine-1-carboxylate] | < 0.018 nM
CN(c1cc(-c2cnc(N)nc2)nc(N2CCOCC2)n1)C1(CO)CCN(C(=O)OC(C)(C)C)C1 (single isomer, unassigned) [Example 26, tert-butyl 3-{[2′-amino-2-(morpholin-4-yl)-4,5′-bipyrimidin-6-yl](methyl)amino}-3-(hydroxymethyl)pyrrolidine-1-carboxylate] | < 0.018 nM
CN(c1cc(-c2cnc(N)nc2)nc(N2CCOCC2)n1)C1(CO)CCN(C(=O)OC(C)(C)C)C1 (single isomer, unassigned) [Example 27, tert-butyl 3-{[2′-amino-2-(morpholin-4-yl)-4,5′-bipyrimidin-6-yl](methyl)amino}-3-(hydroxymethyl)pyrrolidine-1-carboxylate] | 0.717 nM
Nc1ncc(-c2nc(N3CCOCC3)nc(N[C@]3(CO)CCCN(C(=O)C4(F)CC4)C3)c2F)cn1 (single isomer, unassigned) [Example 158] | 0.627 nM
Nc1ncc(-c2nc(N3CCOCC3)nc(N[C@@]3(COP(=O)(O)O)CCN(C(=O)OCC(F)F)C3)c2F)cn1 [Example 3, 2,2-difluoroethyl (3S)-3-{[2′-amino-5-fluoro-2-(morpholin-4-yl)-4,5′-bipyrimidin-6-yl]amino}-3-[(phosphonooxy)methyl]pyrrolidine-1-carboxylate] | 2.61 nM
C[C@H]1COCCN1c1nc(N[C@]2(C)CCN(C(=O)OC(C)(C)C)C2)cc(-c2cnc(N)nc2)n1 [Example 15, tert-butyl (3R)-3-({2′-amino-2-[(3S)-3-methylmorpholin-4-yl]-4,5′-bipyrimidin-6-yl}amino)-3-methylpyrrolidine-1-carboxylate] | 0.979 nM
C[C@H]1COCCN1c1nc(N[C@@]2(C)CCN(C(=O)OC(C)(C)C)C2)cc(-c2cnc(N)nc2)n1 [Example 19, tert-butyl (3S)-3-({2′-amino-2-[(3S)-3-methylmorpholin-4-yl]-4,5′-bipyrimidin-6-yl}amino)-3-methylpyrrolidine-1-carboxylate] | 0.158 nM
CN(c1cc(-c2cnc(N)nc2)nc(N2CCOCC2)n1)C1(CO)CCN(C(=O)OC(C)(C)C)C1 (stereo not drawn) [Example 25, tert-butyl 3-{[2′-amino-2-(morpholin-4-yl)-4,5′-bipyrimidin-6-yl](methyl)amino}-3-(hydroxymethyl)pyrrolidine-1-carboxylate] | 0.049 nM
CS(=O)(=O)N1CC[C@](CO)(Nc2cc(-c3cnc(N)nc3)nc(N3CCOCC3)n2)C1 [Example 33, [(3S)-3-{[2′-amino-2-(morpholin-4-yl)-4,5′-bipyrimidin-6-yl]amino}-1-(methylsulfonyl)pyrrolidin-3-yl]methanol] | 0.3 nM
COC(=O)N1CC[C@](CO)(Nc2cc(-c3cnc(N)nc3)nc(N3CCOCC3)n2)C1 [Example 34, methyl (3S)-3-{[2′-amino-2-(morpholin-4-yl)-4,5′-bipyrimidin-6-yl]amino}-3-(hydroxymethyl)pyrrolidine-1-carboxylate] | 0.019 nM
C[C@H]1COCCN1c1nc(N[C@@]2(CO)CCN(C(=O)OC(C)(C)C)C2)cc(-c2cnc(N)nc2)n1 [Example 36, tert-butyl (3S)-3-({2′-amino-2-[(3S)-3-methylmorpholin-4-yl]-4,5′-bipyrimidin-6-yl}amino)-3-(hydroxymethyl)pyrrolidine-1-carboxylate] | < 0.018 nM
CC(C)(C)OC(=O)N1CC[C@](CO)(Nc2nc(N3CCOCC3)nc(-c3cnc(N)nc3)c2F)C1 [Example 38, tert-butyl (3S)-3-{[2′-amino-5-fluoro-2-(morpholin-4-yl)-4,5′-bipyrimidin-6-yl]amino}-3-(hydroxymethyl)pyrrolidine-1-carboxylate] | < 0.018 nM
CC(C)(C)OC(=O)N1CC[C@](CO)(Nc2nc(-c3cnc(N)nc3)nc(N3CCOCC3)n2)C1 [Example 39, tert-butyl (3S)-3-{[4-(2-aminopyrimidin-5-yl)-6-(morpholin-4-yl)-1,3,5-triazin-2-yl]amino}-3-(hydroxymethyl)pyrrolidine-1-carboxylate] | 0.105 nM
